Holding throughout (assay): inhibition of tumour cell growth, NCI panel, 48 h
The test system of experiment [1] is IGROV-1.
Experiment [2] relates to RXF 393.
The test system of experiment [3] is NCI/ADR-RES.
Experiment [4] deals with NCI-H23.
Experiment [5] relates to MDA-MB-231.
The subject of experiment [6] is HOP-92.
In experiment [7] the test system is LXFL 529.
Experiment [8] concerns U-251.
The subject of experiment [9] is HCT-15.
The test system of experiment [10] is M14.
In experiment [11] the test system is LOX IMVI.
The test system of experiment [12] is OVCAR-5.
In experiment [13] the test system is COLO 205.
Experiment [14] relates to A549.
Experiment [15] deals with SNB-19.
For experiment [16], the system named is SK-OV-3.
For experiment [17], the system named is SK-MEL-2.
The subject of experiment [18] is OVCAR-8.
For experiment [19], the system named is A498.
The subject of experiment [20] is SK-MEL-28.

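Test compounds were applied to cells in 96-well plates for 48 hours at 5 doses. Here, GI50 denotes the concentration required for 50% inhibition of growth.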 Calls of active or inactive are those of the source. Cut-off read from the data, not from the text of the source: active = GI50 up to about 1.1 µM and inactive = higher.

As to `CN/N=C(/CCN1CCCC1)CC(c1ccccc1)c1c(O)c2ccccc2oc1=O` (stereo not given), the GI50 in experiment [1] was > 100 µM (inactive); in experiment [2], > 100 µM (inactive); in [3], > 100 µM (inactive); in experiment [4] it was > 96.4 µM (inactive); in [5], > 100 µM (inactive); in experiment [6] it was 0.804 µM (active). In addition, the GI50 in [7] was > 100 µM (inactive); in experiment [8], > 100 µM (inactive); in [9], over 100 µM; in experiment [10], > 100 µM (inactive); in experiment [11] it was > 100 µM (inactive); in experiment [12], > 100 µM (inactive). Further, the GI50 was 34.9 µM (inactive) in [13]; > 100 µM (inactive) in experiment [14]; > 100 µM (inactive) in experiment [15]; > 100 µM (inactive) in experiment [16]; > 100 µM (inactive) in experiment [17]; > 100 µM (inactive) in experiment [18]. The GI50 in experiment [19] and in experiment [20] was > 100 µM (inactive) in each case.

Values taken from ChEMBL document CHEMBL1201862, “PubChem BioAssay data set” (2004).
